Experimental data reported in patent US10955415B2, “CD247 as a biomarker for assessing the effect of chemotherapeutic and biological drugs” (YISSUM RESEARCH DEVELOPMENT COMPANY OF THE HEBREW …, priority 2011, dated 2021).
“Also recorded” adds a separate entry of the source.

Experiments:
CD4+Foxp3+ Treg cells = system: CD4+Foxp3+ Treg cells; parameters: species or system mice; conditions: mouse, in vivo
CD247 [1] = test: CD247 expression in T cells infiltrating the colon, CRC mouse model; type: in vivo; conditions: CRC-bearing mice
CD247 [2] = test: Adoptive transfer of CFSE-labeled normal splenocytes, CD247 in host and donor cells; type: in vivo, mice; conditions: BCG-inflamed hosts, 24 h after transfer, spleen
Description: CFSE-labeled splenocytes from normal mice (donor cells) were adoptively transferred into mice untreated, inflamed, and inflamed treated i.p. with irinotecan (hosts). After 24 h, splenocytes from each group were harvested and stained for CD247 expression (MFI) in CD3+ T cells within the CFSE+ (donor-cell) or CFSE− (host-cell) population. Data from three independent experiments (n=4) is presented. Statistical analyses using t test indicated significant differences at 95% Cl. Means and SEM are shown. * P<0.05. Abbreviations: Ho. (host), Do. (donor), cont. (control).
CFSE-labeled splenocytes from normal mice (donor cells) were adoptively transferred into non-inflamed, inflamed, and inflamed mice treated i.p. with 5-FU (hosts). After 24 h, splenocytes from each group were harvested and stained for CD247 expression (MFI) in CD3+ T cells within the CFSE+ (donor-cell) or CFSE− (host-cell) population. Data from three independent experiments (n=4) is presented. Statistical analyses using t test indicated significant differences at 95% Cl. Means and SEM are shown. *, P<0.05. Abbreviations: Ho. (host), Do. (donor), cont. (control).
Next, the effect of etanercept treatment on the host's immune status as well as on adoptively transferred T- and NK-cells was examined. It should be noted that adoptively transferred T- and NK-cells being a treatment that is frequently used today in different immunotherapeutic regiments for various pathologies. To this end, CFSE-labeled normal splenocytes were administered, i.v., 1 day before cell harvest, at the peak of the inflammatory response (mimicking cell mediated therapies).

Thy1.2+ (CD90+) T-cells = test: T-cell proliferation of CFSE-labeled splenocytes activated with anti-CD3 and anti-CD28; type: in vivo; conditions: splenocytes of BCG-inflamed treated mice, anti-CD3/anti-CD28 activation
Description: FIG. 2C. Splenocytes from untreated, inflamed, and inflamed-treated i.v. with irinotecan were labeled with CFSE and activated with anti-CD3 and anti-CD28 antibodies or left non-activated. The proliferative response was assessed by monitoring cell divisions of gated CFSE-labeled Thy1.2+ (CD90+) cells. Data was calculated by percent of proliferating cells compared to steady state of non-activated of each group.
(§1) FIG. 18A-18E. Splenocytes and PBLs from mice untreated (naïve), inflamed, or inflamed and treated with 5-FU or CPT-11 were fixed, permeabilized, and double stained for the expression of CD247 (ζ-chain) (FIGS. 18A, 18B) and CD3ε-chain (FIGS. 18D, 18E), as shown by mean fluorescence intensity (MFI), measured in gated CD3^+ cells. FIG. 18C: Splenocytes from mice, naïve, inflamed and inflamed treated with 5-FU or CPT-11, were labeled with CFSE and activated with anti-CD3 and anti-CD28 antibodies or left non-activated. The proliferative response was assessed by monitoring cell divisions of gated CFSE-labeled Thy1.2+ (CD90+) T-cells. The percent of proliferating cells was calculated and compared to steady state levels of non-activated cells per each group. Data from three independent experiments is presented (n=3). Statistical analyses using t test indicated significant differences at 95%. Means and SEM are shown. *, P<0.05; **, P<0.01. FIG. 18F-18I. For the detection of myeloid differentiation state, splenocytes from each group were stained for (18F) DC11b^+CD11c^+ cells (representing DCs), (18G) DC11b^+F4/80^+ cells (representing monocytes), (18H) CD11c^+MHCII^+CD80^+ cells (representing fully differentiated […] as antigen presenting cells) and (18I) F4/80^+MHCII^+CD80^+ cells (representing fully differentiated […] as antigen presenting cells). Data from three independent experiments (n=4) is presented. Statistical analyses using t test indicated significant differences at 95%. Means and SEM are shown. *, P<0.05; **, P<0.01; ***, P<0.001. Abbreviations: Nor. (normal), Rel. (relative), Inf. (inflamed), ce. Pro. (cell proliferation)

CD247 (ζ chain) = system: CD247 (ζ chain); parameters: species or system mice; conditions: mouse, in vivo
[3] = system: CD247 in NK (NCR1+) cells; test: CD247 expression in gated NK (NCR1+) cells from spleen; type: in vivo; conditions: spleen of BCG-inflamed mice, monotherapy
Description: FIG. 2E. CD247 expression was measured gating on NK (NCR1+) cells derived from the spleens of each group. Data from three independent experiments is presented (n=4). Statistical analyses using t test indicated significant differences at 95% Cl. Means and SEM are shown. *, P<0.05.
(§2) Isolated splenocytes and peripheral blood leukocytes (PBLs) were treated with erythrocyte lysis buffer and washed in PBS. Cells were pre-coated with anti-CD16/CD32 (Biolegend) for FcR blockage. For surface staining, cells were incubated for 30 min at 4° C. with FITC-labeled anti-Gr1, anti-CD11c, and anti-CD4; PE-labeled anti F4/80, anti-CD3ε, anti-CD45R/B220, and anti-mNKp46; and biotinylated anti-CD11b and anti-CD8 that were detected with streptavidin-Cy5 (Biolegend and eBioscience). Intracellular staining of CD247 cells was performed by subjecting the cells to fixation with paraformaldehyde (1%) for 20 min at 4° C., followed by washing and permeabilization for 10 min with saponin detergent (0.1%) at room temperature (RT). Cells were then washed and incubated with FITC-labeled monoclonal anti-CD247 (H146) (Abcam), or biotinylated monoclonal anti-CD247 (H146), which were subsequently detected with streptavidin-Cy5. FoxP3 staining was performed according to the manufacturer's instructions. Samples were analyzed using FACSCalibur with Cell Quest software (BD).

MDSCs (Gr1+CD11b+) [4] = test: MDSC accumulation in spleen and PBLs, AOM/DSS colorectal cancer (CRC) mouse model; type: in vivo; conditions: CRC (AOM/DSS) mice, i.p., vs untreated CRC group
From the text: The mouse model for CRC was used as described in Experimental procedures. […] Mice were sacrificed at week +11, three weeks after the second DSS treatment. […] Graphs represent the percent of MDSCs presented within the spleen (FIG. 21A) and PBLs (FIG. 21C). Data from three independent experiments (n=3) is presented. […] Means and SEM are shown. *, P<0.05; **, P<0.01; ***, P<0.001.
The mouse model for CRC was established by two repeated injections of azoxymethane (AOM) (Sigma) in intervals of two weeks followed by two weekly administrations of DSS (Sigma) that was added to drinking water every two weeks for duration of about seven days. […] Mice were sacrificed at week +11, three weeks after the second DSS treatment.

[5] = system: CD11b+CD11c+ and CD11b+F4/80+ cells; test: Myeloid differentiation state in spleen (DCs, macrophages, APC maturation); type: in vivo; conditions: BCG-inflamed mice
From the text: as §1, §2

colorectal cancer (CRC) = test: Survival, colon structure and tumor loads of CRC-bearing mice; type: in vivo
Description: Survival of mice CRC, CRC-5-FU or CRC-5FU/CPT-11 treatment is shown as Kaplan-Meyer curve (n=20). Time points of AOM injections and the period of DSS addition are represented by gray arrows and lines, respectively. Start point of chemotherapy treatment and continual boosts are shown as black arrows.
The mouse model for CRC was established by two repeated injections of azoxymethane (AOM) (Sigma) in intervals of two weeks followed by two weekly administrations of DSS (Sigma) that was added to drinking water every two weeks for duration of about seven days. In order to test the influence of chemotherapeutic drugs on the induced-chronic inflammatory environment in a CRC model, after the second DSS treatment mice were randomized into three groups (n=10 mice) as follows: CRC control group, CRC and 5-FU i.p inoculated group and CRC and CPT-11 i.p inoculated group. Mice were sacrificed at week +11, three weeks after the second DSS treatment.
It important to note that in each of the experiments performed (presented in FIG. 21 and FIG. 22), pathological macroscopic and microscopic tests have been performed on the structure of the colon and counts were made of the tumor loads.

TNFα, IL-6, IFNγ = test: Real Time PCR of inflammatory cytokines in MDSCs and total splenocytes; type: in vivo, mice; conditions: relative to inflamed untreated; for mRNA levels of TNFα and IL-6: spleen-derived MDSCs and total splenocytes
MDSCs (Gr1+CD11b+) [6] = system: MDSCs (Gr1+CD11b+); parameters: species or system mice; conditions: mouse, in vivo
CD3ε chain = system: CD3ε chain; parameters: species or system mice; conditions: mouse, in vivo

| SMILES | levels of Treg cells (CD4+Foxp3+) in spleen (CD4+Foxp3+ Treg cells) | CD247 expression levels in T cells infiltrating the colon (CD247 [1]) | CD247 expression in host and adoptively transferred donor T cells (CD247 [2]) | CD247 expression in T cells, PBLs (CD247 (ζ chain)) | CD247 expression in T cells, spleen (CD247 (ζ chain)) | MDSC percentage in PBLs (MDSCs (Gr1+CD11b+) [4]) | MDSC percentage in spleen (MDSCs (Gr1+CD11b+) [4]) | differentiated myeloid cells in spleen (CD11b+CD11c+ DCs, CD11b+F4/80+ macrophages) [5] | survival of CRC mice (Kaplan-Meyer) (colorectal cancer (CRC)) | mRNA levels of TNFα and IL-6 (TNFα, IL-6, IFNγ) | MDSC levels in peripheral blood (PBLs) (MDSCs (Gr1+CD11b+) [6]) | MDSC levels in the spleen (MDSCs (Gr1+CD11b+) [6]) | CD3ε expression levels (CD3ε chain) | further results |
| --- | --- | --- | --- | --- | --- | --- | --- | --- | --- | --- | --- | --- | --- | --- |
| O=c1[nH]cc(F)c(=O)[nH]1 [5-FU, 5-Fluorouracil] | remained unchanged | elevated | clear significant increase | significant recovery | recovered significantly; also recorded: significant recovery | significant decrease | significant decrease | significant turning towards differentiated myeloid population | increased survival | no significant changes | significant decline; also recorded: decrease; also recorded: reduced | significant decline; also recorded: decrease; also recorded: reduced | rather constant; also recorded: not down regulated | proliferative capacity of T cells (Thy1.2+ (CD90+) T-cells): tendency of a functional recovery; CD247 expression in NK (NCR1+) cells [3]: recovery from immunosuppression; also recorded: almost completely recovered; maturation of antigen presenting cells (CD80 and MHCII expression) [5]: enhanced the maturation; curable effects on colon structure and tumor loads (colorectal cancer (CRC); macroscopic and microscopic pathology): observed |
| CCc1c2c(nc3ccc(OC(=O)N4CCC(N5CCCCC5)CC4)cc13)-c1cc3c(c(=O)n1C2)COC(=O)[C@]3(O)CC [Irinotecan] | remained unchanged | Reduced levels | significant further decrease | further significantly decreased; also recorded: tendency of decreased expression | further significantly decreased; also recorded: strong down-regulation | no changes | significantly increased | blockage of the myeloid cell differentiation and maturation | reduced survival rate | no significant changes | remained high; also recorded: no changes | significantly enhanced; also recorded: significantly increased | remained unchanged; also recorded: not down regulated | proliferative capacity of T cells (Thy1.2+ (CD90+) T-cells; listed as CPT11): impaired proliferative capacity; proliferative capacity of T cells (Thy1.2+ (CD90+) T-cells; listed as CPT-11): significantly diminished; CD247 expression in NK (NCR1+) cells ([3]; listed as CPT11): low CD247 expression; CD247 expression in NK (NCR1+) cells ([3]; listed as CPT-11): remained down-regulated with no further decrease; mRNA level of IFNγ (TNFα, IL-6, IFNγ; MDSCs and total spleen-population): decreased |
